Experimental data taken from US10004711B2, “Methods and compositions comprising 10-hydroxy-2-decenoic acid” (DSM IP ASSETS B.V., priority 2014, dated 2018).

Experiments:
[1] = Weight after Barnes maze psychological stress (Example 9); assay type: in vivo, rat
Method: Aged male rats were fed 10-Hydroxy-2-decenoic acid (QBA) for approximately […] from 12-months to 20-months of age and the weight of rats was recorded (N=11-14 per group). During the last month of QBA feeding animals were subjected to the psychological stress of the Barnes maze.

[2] = test system: stem cells; settings: Hattori et al. 2009; cited from earlier work
[3] = test system: older rats; assay: Open field test, older rats fed QBA; assay type: in vivo, rat; settings: for Center Entries (#): rats 15 months old, thirty minutes
Method: (§1) The dose-response characteristics of 10-Hydroxy-2-decenoic acid's (QBA's) potential brain health benefits during aging were assessed for mood in older rats (18-20 months old).
In the open field test each rat was placed in a novel environment consisting of an arena measuring 100×100×40 cm. Rats were placed in the middle of the chamber and behavior in the open field was recorded for thirty minutes with a digital camera and measured by software. More time spent in the center of the area is an indication of a reduced anxiety-like state. Rats were tested at 15 months old (N=11-12 per group).

[4] = test system: RAW264.7 mouse macrophage cell line; assay: TNFα levels after LPS stimulation; assay type: cell-based; settings: for TNFα (pg/mL)/Cell Numbers: 24 h
Method: (§2) Cultures of the RAW264.7 mouse macrophage cell line were pre-treated with 10-Hydroxy-2-decenoic acid (QBA) for 1 hour prior to stimulation with lipopolysaccharide (LPS, 100 ng/mL). After 24 hours of incubation, interleukin […] (IL-1β) and tumor necrosis factor-α (TNFα) levels were determined by Luminex technology and cell numbers were measured using Alamar Blue. Results are given as a ratio of cytokine concentration/cell number.

[5] = test system: Neurons from the brain's hippocampus; assay: In vitro neurite extension (Map2a staining per neuron); assay type: cell-based, rat; settings: for % Map2a Staining/Neuron: 7 days incubation
Method: Neurons from the brain's hippocampus were derived from embryonic day (E17) rat pups and incubated with QBA for 7 days. The cultures were then stained with neuron-specific marker, microtubule associated protein-2a (Map2a) and cell nuclei were stained with 4′,6-diamidino-2-phenylindole (DAPI). Fluorescent images of the staining were then captured with a confocal microscope. The staining was quantitated by dividing the percent area of the Map2a staining by the number of neurons.

[6] = test system: histone deacetylases; settings: Spannhoff et al. 2011; cited from earlier work
[7] = test system: RAW264.7 mouse macrophage cell line; assay: IL-1β levels after LPS stimulation; assay type: cell-based; settings: for IL-1β (pg/mL)/Cell Numbers: 24 h
Method: as §2

[8] = test system: older male rats; assay: Learning acquisition, Barnes maze task; assay type: in vivo, rat; settings: for Escape Latency: average of two trial runs
Method: The dose-response characteristics of 10-Hydroxy-2-decenoic acid's (QBA's) potential brain health benefits during aging were assessed for cognitive performance in older male rats (16-17 months old; N=10-12 per group). Rats were fed QBA for 4-5 months prior to behavioral assessment. Spatial learning and memory performance was tested using the Barnes circular maze which consists of a 4-ft diameter, gray circular platform raised 90 cm above the floor level with 20 holes, 10 cm in diameter, evenly spaced around the circumference. Animals were trained to locate a black escape tunnel beneath one of the holes in response to aversive light stimuli. The latency to enter the escape box in each of two trials across four trial days was recorded. Shorter latencies across and within trial days is an indication of better cognitive performance.

[9] = test system: older rats; assay: Elevated plus-maze, older rats fed QBA; assay type: in vivo, rat; settings: for Time (s) in Open Arm: rats 18 months old, 5-min test
Method: as §1
Rats were fed QBA and subjected to an elevated plus-maze. The elevated plus-maze was elevated ˜85 cm above the floor and consisted of two open and two closed arms of the same size (50×10 cm). The closed arms were surrounded by walls 40 cm high, and the arms were constructed of black acrylic slabs that radiated from a central platform (10×10 cm) to form a plus sign. Each rat was placed in the central platform facing one of the open arms, and its behavior was recorded during a 5-min testing period with video capture software. More time spent in the open arms is an indication of reduced anxiety-like state. Rats were tested at 18 months old (N=11-13 per group).

[10] = test system: Neurons from the brain's hippocampus; assay: Glutamate toxicity, cell death (propidium iodide); assay type: cell-based, rat; settings: for Cell Death (% Control): glutamate 25 μM 24 h
Method: Neurons from the brain's hippocampus were derived from E17 pups and incubated for 7 days. The cells were pre-treated with QBA for 48 hours and subsequently challenged with glutamate (25 μM) for 24 hours. The cultures were then stained with propidium iodide, a marker of cell death, and with tetramethylrhodamine ethyl ester (TMRE), a marker for mitochondrial health. The fluorescence of each of these markers was then quantitated with a fluorimeter.

[11] = QBA 24 mg/kg/d, 15-18-month old male rats
[12] = QBA 50 μM 1 h before LPS 100 ng/mL
[13] = QBA 100 μM 1 h before LPS 100 ng/mL
[14] = QBA 500 μM 1 h before LPS 100 ng/mL
[15] = QBA 1000 μM 1 h before LPS 100 ng/mL
[16] = QBA 2500 μM 1 h before LPS 100 ng/mL
[17] = QBA 5000 μM 1 h before LPS 100 ng/mL

What does the source list for `O=C(O)C=CCCCCCCCO` [QBA, 10-Hydroxy-2-decenoic acid]?
% Change (Weight after Barnes maze) ([1]; QBA 12 mg/kg/day, behavior stress day 7): −0.15%; % Change (Weight after Barnes maze) ([1]; QBA 12 mg/kg/day, behavior stress day 14): −0.20%; % Change (Weight after Barnes maze) ([1]; QBA 12 mg/kg/day, behavior stress day 21): 0.56%; % Change (Weight after Barnes maze) ([1]; QBA 12 mg/kg/day, behavior stress day 28): 0.63%; % Change (Weight after Barnes maze) ([1]; QBA 12 mg/kg/day, behavior stress day 35): 0.87%; % Change (Weight after Barnes maze) ([1]; QBA 24 mg/kg/day, behavior stress day 7): −0.15%; % Change (Weight after Barnes maze) ([1]; QBA 24 mg/kg/day, behavior stress day 14): 0.02%; % Change (Weight after Barnes maze) ([1]; QBA 24 mg/kg/day, behavior stress day 21): 0.54%; % Change (Weight after Barnes maze) ([1]; QBA 24 mg/kg/day, behavior stress day 28): 0.74%; % Change (Weight after Barnes maze) ([1]; QBA 24 mg/kg/day, behavior stress day 35): 1.32%; weight change versus control, repeated measures ANOVA ([1]; all doses versus 0 mg/kg/day QBA or 0 mg/kg/day QBA+0.07% DHA): small but significant increase; weight loss associated with the psychological stress ([1]; summary of Table 15): mitigated weight loss; neurogenesis and gliogenesis from stem cells [2]: stimulation of neurogenesis from stem cells while inhibiting gliogenesis; Center Entries (#) ([3]; QBA 0.4 mg/kg/day): 1.82 #; Center Entries (#) ([3]; QBA 4 mg/kg/day): 2.50 #; Center Entries (#) ([3]; QBA 12 mg/kg/day): 1.82 #; anxiety as measured by the number of center entries in the open field arena [3, 11]: decreased anxiety; Center Entries (#) ([3]; QBA 24 mg/kg/day): 3.75 #; TNFα (pg/mL)/Cell Numbers [4, 12]: 0.409 (pg/mL)/Cell Numbers; TNFα (pg/mL)/Cell Numbers [4, 13]: 0.456 (pg/mL)/Cell Numbers; TNFα (pg/mL)/Cell Numbers [4, 14]: 0.427 (pg/mL)/Cell Numbers; TNFα (pg/mL)/Cell Numbers [4, 15]: 0.261 (pg/mL)/Cell Numbers; TNFα (pg/mL)/Cell Numbers [4, 16]: 0.252 (pg/mL)/Cell Numbers; TNFα (pg/mL)/Cell Numbers [4, 17]: 0.150 (pg/mL)/Cell Numbers; production of TNFα in immune cells ([4]; summary of Table 10): reduced the production; % Map2a Staining/Neuron ([5]; QBA 0.10 μM): 0.29%; % Map2a Staining/Neuron ([5]; QBA 0.30 μM): 0.32%; % Map2a Staining/Neuron ([5]; QBA 1.00 μM): 0.30%; % Map2a Staining/Neuron ([5]; QBA 3.00 μM): 0.31%; % Map2a Staining/Neuron ([5]; QBA 10.00 μM): 0.32%; % Map2a Staining/Neuron ([5]; QBA 30.00 μM): 0.32%; % Map2a Staining/Neuron ([5]; QBA 100.00 μM): 0.27%; growth of brain cells in culture ([5]; summary of Table 1): increased the growth of brain cells in culture; histone deacetylase inhibition [6]: inhibits histone deacetylases; IL-1β (pg/mL)/Cell Numbers [7, 12]: 0.00386 (pg/mL)/Cell Numbers; IL-1β (pg/mL)/Cell Numbers [7, 13]: 0.00402 (pg/mL)/Cell Numbers; IL-1β (pg/mL)/Cell Numbers [7, 14]: 0.00242 (pg/mL)/Cell Numbers; IL-1β (pg/mL)/Cell Numbers [7, 15]: 0.00242 (pg/mL)/Cell Numbers; IL-1β (pg/mL)/Cell Numbers [7, 16]: 0.00097 (pg/mL)/Cell Numbers; IL-1β (pg/mL)/Cell Numbers [7, 17]: 0.00067 (pg/mL)/Cell Numbers; production of IL-1β in immune cells ([7]; summary of Table 9): reduced the production; Escape Latency ([8]; QBA 0.4 mg/kg/day, trial day 1): 98.8 s; Escape Latency ([8]; QBA 0.4 mg/kg/day, trial day 2): 63.4 s; Escape Latency ([8]; QBA 0.4 mg/kg/day, trial day 3): 63.4 s; Escape Latency ([8]; QBA 0.4 mg/kg/day, trial day 4): 24.7 s; Escape Latency ([8]; QBA 4 mg/kg/day, trial day 1): 106.7 s; Escape Latency ([8]; QBA 4 mg/kg/day, trial day 2): 43.4 s; Escape Latency ([8]; QBA 4 mg/kg/day, trial day 3): 43.4 s; Escape Latency ([8]; QBA 4 mg/kg/day, trial day 4): 23.6 s; Escape Latency ([8]; QBA 12 mg/kg/day, trial day 1): 79.3 s; Escape Latency ([8]; QBA 12 mg/kg/day, trial day 2): 30.7 s; Escape Latency ([8]; QBA 12 mg/kg/day, trial day 3): 30.7 s; Escape Latency ([8]; QBA 12 mg/kg/day, trial day 4): 24.3 s; Escape Latency ([8]; QBA 24 mg/kg/day, trial day 1): 109.8 s; Escape Latency ([8]; QBA 24 mg/kg/day, trial day 2): 48.4 s; Escape Latency ([8]; QBA 24 mg/kg/day, trial day 3): 48.4 s; Escape Latency ([8]; QBA 24 mg/kg/day, trial day 4): 34.3 s; speed of learning acquisition (Barnes maze task) ([8]; male rats aged 16-17 months): increased the speed of learning acquisition; Time (s) in Open Arm ([9]; QBA 0.4 mg/kg/day): 48.5 s; Time (s) in Open Arm ([9]; QBA 4 mg/kg/day): 52.2 s; Time (s) in Open Arm ([9]; QBA 12 mg/kg/day): 37.1 s; anxiety as measured by the time in the open arms of the elevated plus maze [9, 11]: decreased anxiety; Time (s) in Open Arm ([9]; QBA 24 mg/kg/day): 69.8 s; Cell Death (% Control) ([10]; QBA 0.10 μM pre-treatment 48 h): 92.52 % Control; Cell Death (% Control) ([10]; QBA 0.30 μM pre-treatment 48 h): 90.43 % Control; Cell Death (% Control) ([10]; QBA 1.00 μM pre-treatment 48 h): 88.78 % Control; Cell Death (% Control) ([10]; QBA 3.00 μM pre-treatment 48 h): 94.07 % Control; Cell Death (% Control) ([10]; QBA 10.00 μM pre-treatment 48 h): 92.78 % Control; Cell Death (% Control) ([10]; QBA 30.00 μM pre-treatment 48 h): 90.69 % Control; Cell Death (% Control) ([10]; QBA 100.00 μM pre-treatment 48 h): 91.76 % Control; cell death after glutamate toxicity ([10]; summary of Table 2): decreased cell death
